Results as given in ChEMBL document CHEMBL3045068, “Effect of methomyl and oxamyl soil applications on early control of nematodes and insects” (Pest Manag Sci, 2011).
≈ marks a conversion by molar mass, not a printed value.

Experiments:
Pisum sativum [1] = experiment: Phytotoxicity in Pisum sativum (pea) assessed as emergence at 3 kg ai/ha applied to soil measured up to 14 days post planting at 27 degC under green house conditions (reference value: 70 +/- 3.3%); type: organism-based; conditions: lathyrus oleraceus, in vivo, other, 336 h
Meloidogyne incognita [2] = experiment: Nematicidal activity against second juvenile stage of Meloidogyne incognita (root-knot nematode) infected lima bean plant assessed as root dry weight at 3 kg ai/ha applied to soil measured up to 7 days post planting under green house conditions (reference value: 0.5 +/- 0.052 g); type: functional
Meloidogyne incognita [3] = experiment: Nematicidal activity against second juvenile stage of Meloidogyne incognita (root-knot nematode) infected lima bean plant assessed as shoot dry weight at 3 kg ai/ha applied to soil measured up to 7 days post planting under green house conditions (reference value: 1.84 +/- 0.18 g); type: functional
Phaseolus lunatus [4] = experiment: Phytotoxicity in Phaseolus lunatus (lima bean) plant assessed as emergence at 0.56 kg ai/ha under green house conditions applied to soil (reference value: 70 +/- 16%); type: organism-based; conditions: in vivo, other
Pisum sativum [5] = experiment: Phytotoxicity in Pisum sativum (pea) assessed as root dry weight at 3 kg ai/ha applied to soil measured up to 7 days post planting at 19 degC (reference value: 2 +/- 0.21 g); type: organism-based; conditions: lathyrus oleraceus, in vivo, other, 168 h
Pisum sativum [6] = experiment: Phytotoxicity in Pisum sativum (pea) assessed as plant height at 3 kg ai/ha applied to soil measured up to 14 days post planting at 27 degC under green house conditions (reference value: 9.6 +/- 1.5 cm); type: organism-based; conditions: lathyrus oleraceus, in vivo, other, 336 h
Phaseolus lunatus [7] = experiment: Phytotoxicity in Phaseolus lunatus (lima bean) plant assessed as emergence at 2.56 kg ai/ha applied to soil measured up to 14 days under green house conditions (reference value: 70 +/- 16%); type: organism-based; conditions: in vivo, other, 336 h
Pisum sativum [8] = experiment: Phytotoxicity in Pisum sativum (pea) assessed as plant fresh weight at 4 kg ai/ha applied to soil measured up to 7 days post planting at 27 degC under green house conditions (reference value: 3.9 +/- 0.83 g); type: organism-based; conditions: lathyrus oleraceus, in vivo, other, 168 h
Phaseolus lunatus [9] = experiment: Phytotoxicity in Phaseolus lunatus (lima bean) root assessed as root dry weight at 2.56 kg ai/ha applied to soil measured up to 14 days under green house conditions (reference value: 0.36 +/- 0.071 g); type: organism-based; conditions: in vivo, other, 336 h
Phaseolus lunatus [10] = experiment: Phytotoxicity in Phaseolus lunatus (lima bean) root assessed as root dry weight at 1.56 kg ai/ha applied to soil measured up to 7 days under green house conditions (reference value: 0.36 +/- 0.071 g); type: organism-based; conditions: in vivo, other, 168 h
Pisum sativum [11] = experiment: Phytotoxicity in Pisum sativum (pea) assessed as plant height at 3 kg ai/ha applied to soil measured up to 7 days post planting at 27 degC under green house conditions (reference value: 9.6 +/- 1.5 cm); type: organism-based; conditions: lathyrus oleraceus, in vivo, other, 168 h
Pisum sativum [12] = experiment: Phytotoxicity in Pisum sativum (pea) assessed as plant fresh weight at 3 kg ai/ha applied to soil measured up to 14 days post planting at 27 degC under green house conditions (reference value: 3.9 +/- 0.83 g); type: organism-based; conditions: lathyrus oleraceus, in vivo, other, 336 h
Pisum sativum [13] = experiment: Phytotoxicity in Pisum sativum (pea) assessed as root dry weight at 4 kg ai/ha applied to soil measured up to 7 days post planting at 19 degC (reference value: 2 +/- 0.21 g); type: organism-based; conditions: lathyrus oleraceus, in vivo, other, 168 h
Spodoptera exigua = experiment: Insecticidal activity against Spodoptera exigua infested tomato assessed as mortality applied through foliar spray after 72 hr; type: functional
Myzus persicae = experiment: Insecticidal activity against Myzus persicae (green peach aphid) infested tomato assessed as mortality applied through foliar spray after 5 days; type: functional
Pisum sativum [14] = experiment: Phytotoxicity in Pisum sativum (pea) assessed as plant fresh weight at 4 kg ai/ha applied to soil measured up to 7 days post planting at 19 degC (reference value: 9.4 +/- 0.54 g); type: organism-based; conditions: lathyrus oleraceus, in vivo, other, 168 h
Bemisia tabaci = experiment: Insecticidal activity against second-instar […] stage of Bemisia tabaci (sweet potato whitefly) infested cotton assessed as mortality applied to soil after 6 days; type: functional
Meloidogyne incognita [15] = experiment: Nematicidal activity against second juvenile stage of Meloidogyne incognita (root-knot nematode) infected pea plant assessed as plant emergence at 3 kg ai/ha applied to soil measured up to 7 days post planting under green house conditions (reference value: 75 +/- 13%); type: functional
Meloidogyne incognita [16] = experiment: Nematicidal activity against second juvenile stage of Meloidogyne incognita (root-knot nematode) infected pea plant assessed as reduction in root gall index at 2 kg ai/ha applied to soil measured up to 7 days post planting under green house conditions (reference value: 9.7 +/- 0.30%); type: functional
Pisum sativum [17] = experiment: Phytotoxicity in Pisum sativum (pea) assessed as root dry weight at 2 kg ai/ha applied to soil measured up to 7 days post planting at 19 degC (reference value: 2 +/- 0.21 g); type: organism-based; conditions: lathyrus oleraceus, in vivo, other, 168 h
Meloidogyne incognita [18] = experiment: Nematicidal activity against second juvenile stage of Meloidogyne incognita (root-knot nematode) infected lima bean plant assessed as shoot dry weight at 2 kg ai/ha applied to soil measured up to 7 days post planting under green house conditions (reference value: 1.84 +/- 0.18 g); type: functional
Meloidogyne incognita [19] = experiment: Nematicidal activity against second juvenile stage of Meloidogyne incognita (root-knot nematode) infected lima bean plant assessed as reduction in root gall index at 1 kg ai/ha applied to soil measured during planting under green house conditions (reference value: 7 +/- 0.27%); type: functional
Meloidogyne incognita [20] = experiment: Nematicidal activity against second juvenile stage of Meloidogyne incognita (root-knot nematode) infected pea plant assessed as root fresh weight at 3 kg ai/ha applied to soil measured up to 14 days post planting under green house conditions (reference value: 1.83 +/- 0.3 g); type: functional

## CNC(=O)ON=C(C)SC [METHOMYL]
Pisum sativum [1]
  Activity: 80%
Meloidogyne incognita [2]
  Activity: 0.39 g
Meloidogyne incognita [3]
  Activity: 1.39 g
Phaseolus lunatus [4]
  Activity: 80%
Pisum sativum [5]
  Activity: 2.2 g
Pisum sativum [6]
  Activity: 9.1 cm
Phaseolus lunatus [7]
  Activity: 80%
Pisum sativum [8]
  Activity: 3.1 g
Phaseolus lunatus [9]
  Activity: 0.31 g
Phaseolus lunatus [10]
  Activity: 0.26 g
Pisum sativum [11]
  Activity: 7 cm
Pisum sativum [12]
  Activity: 3.3 g
Pisum sativum [13]
  Activity: 1.7 g
Spodoptera exigua
  LC90: 60 µg/mL (≈ 370 µM)
Spodoptera exigua; Spodoptera exigua, foliar, 72 h
  LC50: 29 µg/mL (≈ 179 µM)
Myzus persicae
  LC90: 44 µg/mL (≈ 271 µM)
Myzus persicae; Myzus persicae, foliar, 120 h
  LC50: 9 µg/mL (≈ 55.5 µM)
Pisum sativum [14]
  Activity: 8.5 g
Bemisia tabaci
  LC90: 1119 µg/mL (≈ 6900 µM)
Bemisia tabaci; Bemisia tabaci, soil, 144 h
  LC50: 673 µg/mL (≈ 4150 µM)
Meloidogyne incognita [15]
  Activity: 13%
Meloidogyne incognita [16]
  Root_galling_index: 0%
Pisum sativum [17]
  Activity: 3.1 g
Meloidogyne incognita [18]
  Activity: 1.83 g
Meloidogyne incognita [19]
  Root_galling_index: 0%
Meloidogyne incognita [20]
  Activity: 0.89 g
